Test results published in US20110065787A1, “THERAPEUTIC AGENT FOR MALE STERILITY” (SBI ALApromo., Ltd., priority 2008, published 2011).
Entries after “also recorded” stand apart in the source; their conditions may differ.

Experiments:
[1] = test system: healthy volunteers, married men; test: Subjective estimation of erectile effect in healthy volunteers (Example 3); format: in vivo, human
Procedure: 1 g of ALA hydrochloride was dissolved into 50 mL of 5% glucose aqueous solution (test solution), and administered to 7 healthy volunteers, married men from 28 to 44 years old. They ingested orally the test solution (13.9 to 22.2 mg/kg) without taking breakfast.

male rats (Slc:Wistar) [2] = test: Organ weights at autopsy of male rats after repeated oral administration (Example 1); conditions: 500 mg/kg oral once a day, compared to the control group, FIG. 1
male rats (Slc:Wistar) [3] = test: Crossing test: conception rate of copulated animals (Example 2); format: in vivo, rat
Procedure: Forty 10 week-old male rats (Slc:Wistar) and forty 9 week-old female rats were obtained, quarantined for 7 days, and were habituated and bred for 13 days. δ-amino levulinic acid (herein after referred to as ALA) phosphate was weighed, dissolved into injection solvent to prepare a 50 mg/mL solution.
After day 15 from administration of Example 1, crossing period was set as 14 days, and 1 female was housed per 1 male in the control group and in the 500 mg/kg-group.

[4] = 1 g oral in 5% glucose solution (13.9 to 22.2 mg/kg), one line per volunteer 1-7, hydrochloride

| SMILES | Note (sexual intercourse, pregnancy) [1, 4] | Result (erectile, individual subjective estimation) [1, 4] | volunteers in whom erectile was observed on that night ([1]; 1 g oral, 7 healthy volunteers) | volunteers who had sexual intercourse, and pregnancy was confirmed ([1]; 1 g oral, among the volunteers with erectile) | net weight of seminal vesicle (male rats (Slc:Wistar) [2]) | weight volume ratio to the body weight of seminal vesicle (male rats (Slc:Wistar) [2]) | conception succeeded (number of rats) (male rats (Slc:Wistar) [3]; 500 mg/kg-group, control 16 out of 20) | conception rate of copulated animals (male rats (Slc:Wistar) [3]; male rats 500 mg/kg oral once a day, crossing period 14 days after day 15, control group 80.0%) [%] |
| --- | --- | --- | --- | --- | --- | --- | --- | --- |
| Cl.NCC(=O)CCC(=O)O [ALA hydrochloride, δ-amino levulinic acid hydrochloride] | pregnant; also recorded: No sexual intercourse; also recorded: No sexual intercourse, | Δ (when no change is observed by (Δ)) | 5 out of 7 | 2 |  |  |  |  |
| NCC(=O)CCC(=O)O.O=P(O)(O)O [ALA phosphate, δ-amino levulinic acid phosphate] |  |  |  |  | significant high level | significant high level | 17 out of 19 | 94.4 |
